This passage reports ED50 and inhibition in vivo results from patent publication US5273986A, “Cycloalkylthiazoles” (Hoffmann-La Roche Inc., priority 1992, dated 1993).

Where two headings read alike, the source gives them in different places.

This assay relates to LTD4-induced bronchoconstriction. Nature of the assay: Antagonism of LTD4-induced bronchoconstriction in guinea pigs. To be noted: Cavia porcellus; for inhibition in vivo at 1 mg/kg: read-out: percent inhibition at 1 mg/kg p.o., LTD4-induced bronchoconstriction (ID50 not determined). In kind it is in vivo, guinea pig (male, Hartley strain). As for the experimental part: Male guinea pigs (Hartley strain, Charles River) weighing 400-600 g were anesthetized with urethane (2 g/kg) intraperitoneally, and a polyethylene cannula was inserted into the jugular vein for intravenous drug administration. Tracheal pressure (cm of H2 O) was recorded from a Statham pressure transducer (P 32 AA). Propranolol was administered 5 minutes prior to challenge with LTD4. Two minutes later spontaneous breathing was arrested with succinylcholine chloride (1.2 mg/kg) administered intravenously, and the animals were ventilated with a Harvard (Model 680) small animal respirator set at 40 breaths/min and a 4.0 cc stroke volume. Control vehicle (DMSO) or test compound was administered through the cannula into the jugular vein 1 minute before the animals were challenged with a maximum constrictory dose of LTD4 ([…] I.V.) given intravenously. The change in tracheal pressure was averaged for control and drug-treated animals and percent inhibition was calculated. For determination of oral activity, animals were dosed with test compound or vehicle (PEG400) two hours prior to challenge with LTD4 ([…], i.v.).
The relative potency of test compounds administered by the intravenous and oral route was determined by administering increasing doses of test compound at a fixed pretreatment time. The median inhibitory dose (ID50 value) was determined by linear regression of log dose-responsecurves generated by at least 3 doses that caused statistically significant inhibition between 10 and 90%. The correlation coefficient for the regression line was always greater than 0.95. For determination of the time-course of inhibition for various compounds, the time between administration of compound and challenge with LTD4 was varied. Durations of action were defined as the time for inhibitory activity to decrease to 50%.

Where [1] appears, read: iv, 1 min, I.V., compound 1 minute before LTD4 challenge, read-out: ID50 I.V., LTD4-induced bronchoconstriction.
Where [2] appears, read: po, 2 h, p.o., compound two hours prior to LTD4 challenge, read-out: ID50 p.o., LTD4-induced bronchoconstriction.
Where [3] appears, read: po, 2 h, p.o., compound two hours prior to LTD4 challenge.

With `CC(=O)Oc1ccc(CC(=O)Nc2cccc(/C=C/c3nc(C4CCC4)cs3)c2)c(C(=O)O)c1` [Example 31, (E)-5-Acetoxy-2-[2-[3-[2-[4-(cyclobutyl)-2-thiazolyl]ethenyl]phenylamino]-2-oxoethyl]benzoic Acid], the ED50 was 0.004 mg/kg under setting [1] and 0.3 mg/kg under setting [2].
For `COc1cc(C(=O)O)ccc1CC(=O)Nc1cccc(/C=C/c2nc(C3CCC3)cs2)c1` [Example 28b, (E)-4-[2-[3-[2-[4-(cyclobutyl)-2-thiazolyl]ethenyl]phenylamino]-2-oxoethyl]-3-methoxybenzoic acid], the ED50 under setting [1] worked out at 0.4 mg/kg.
`O=C(Cc1ccccc1CO)Nc1cccc(/C=C/c2nc(C3CCC3)cs2)c1` [Example 6, (E)-2-[2-[3-[2-[4-(Cyclobutyl)-2-thiazolyl]ethenyl]phenylamino]-2-oxoethyl]benzyl Alcohol]: the ED50 reads like this: under setting [1], 0.1 mg/kg; under setting [2], 0.3 mg/kg.
Regarding `CN(C)C(=O)c1ccccc1CC(=O)Nc1cccc(/C=C/c2nc(C3CCC3)cs2)c1` [Example 5, (E)-2-[2-[3-[2-[4-(Cyclobutyl)-2-thiazolyl]ethenyl]phenylamino]-2-oxoethyl]-N,N-dimethylbenzamide], the ED50 is, setting by setting: under setting [1], 0.005 mg/kg; under setting [2], 0.6 mg/kg.
With `O=C(Cc1ccc(Cl)cc1C(=O)O)Nc1cccc(/C=C/c2nc(C3CCC3)cs2)c1` [Example 24, (E)-5-chloro-2-[2-[3-[2-[4-(cyclobutyl)-2-thiazolyl]ethenyl]phenylamino]-2-oxoethyl]benzoic acid], the ED50 is, setting by setting: under setting [1], 0.01 mg/kg; under setting [2], 0.2 mg/kg.
Turning to `O=C(Cc1ccccc1C(=O)O)Nc1cccc(/C=C/c2nc(C3CCCCCC3)cs2)c1` [Example 11i, (E)-2-[2-[3-[2-[4-(Cycloheptyl)-2-thiazolyl]ethenyl]phenylamino]-2-oxoethyl]benzoic acid], under setting [1], the ED50 is 0.02 mg/kg. Moreover, under setting [3], the inhibition in vivo at 1 mg/kg was 42 ± 10%.
In the same order, the values of `CCOC(=O)c1csc(/C=C/c2cccc(NC(=O)Cc3ccccc3C(=O)O)c2)n1` [Example 18c, (E)-2-[2-[3-[2-[4-(Ethoxycarbonyl)-2-thiazolyl]ethenyl]phenylamino]-2-oxoethyl]benzoic acid] are 0.2 mg/kg and 13 ± 3%.
As for `O=C(Cc1cccc(C(=O)O)c1)Nc1cccc(/C=C/c2nc(C3CCC3)cs2)c1` [Example 7b, (E)-3-[2-[3-[2-[4-(Cyclobutyl)-2-thiazolyl]ethenyl]phenylamino]-2-oxoethyl]benzoic acid], the ED50 under setting [1] worked out at 0.3 mg/kg.
For the molecule `O=C(NCc1ccccc1C(=O)O)c1cccc(/C=C/c2nc(C3CCC3)cs2)c1` [Example 22c, (E)-2-[[[[3-[2-(4-Cyclobutyl-2-thiazolyl)ethenyl]phenyl]carbonyl]amino]methyl]benzoic acid], the ED50 reads like this: under setting [1], 0.04 mg/kg; under setting [2], 0.1 mg/kg.
